Experimental data as given in patent US11034650B2, “Compounds useful for treating a Mannheimia haemolytica or Histophilus somni infection” (Intervet Inc., priority 2016, dated 2021).
In brackets after ≈: the same amount, converted by molar mass.

Experiments:
Format in all cases: cell-based
[1] = tested on: Mannheimia haemolytica MH 6357 (M7/2, reference strain, cattle infection strain); test: MIC, broth-microdilution (CLSI VET01-A4), strain MH 6357; details: Mannheimia haemolytica strain MH 6357, broth-microdilution; unit assumed
Summary of the method: (§1)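 Serial twofold dilutions; unaided-eye turbidity scoring; lowest clear well = MIC.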

[2] = tested on: Mannheimia haemolytica MH 6374 (ATCC 33396, reference strain); test: MIC, broth-microdilution (CLSI VET01-A4), strain MH 6374; details: Mannheimia haemolytica strain MH 6374, broth-microdilution; unit assumed
Summary of the method: as §1

[3] = tested on: Mannheimia haemolytica MH 10720 (154, BRD field isolate); test: MIC, broth-microdilution (CLSI VET01-A4), strain MH 10720; details: Mannheimia haemolytica strain MH 10720, broth-microdilution; unit assumed
Summary of the method: as §1

[4] = tested on: Mannheimia haemolytica MH 12587 (1071, BRD field isolate, macrolide-resistance: erm+, E+); test: MIC, broth-microdilution (CLSI VET01-A4), strain MH 12587; details: Mannheimia haemolytica strain MH 12587, broth-microdilution; unit assumed
Summary of the method: as §1

[5] = tested on: Mannheimia haemolytica MH 13065 (XB0446-6003.9, BRD field isolate); test: MIC, broth-microdilution (CLSI VET01-A4), strain MH 13065; details: Mannheimia haemolytica strain MH 13065, broth-microdilution; unit assumed
Summary of the method: as §1

[6] = tested on: Mannheimia haemolytica MH 13093 (XB0472-6014.1, BRD field isolate); test: MIC, broth-microdilution (CLSI VET01-A4), strain MH 13093; details: Mannheimia haemolytica strain MH 13093, broth-microdilution; unit assumed
Summary of the method: as §1

[7] = tested on: Pasteurella multocida PM 6267 (P 2225 (L386), reference strain, mouse infection strain); test: MIC, broth-microdilution (CLSI VET01-A4), strain PM 6267; details: Pasteurella multocida strain PM 6267, broth-microdilution; unit assumed
Summary of the method: as §1

[8] = tested on: Pasteurella multocida PM 6391 (ATCC 43137, reference strain); test: MIC, broth-microdilution (CLSI VET01-A4), strain PM 6391; details: Pasteurella multocida strain PM 6391, broth-microdilution; unit assumed
Summary of the method: as §1

[9] = tested on: Pasteurella multocida PM 10775 (080130003051, BRD field isolate); test: MIC, broth-microdilution (CLSI VET01-A4), strain PM 10775; details: Pasteurella multocida strain PM 10775, broth-microdilution; unit assumed
Summary of the method: as §1

[10] = tested on: Pasteurella multocida PM 12080 (IV102277-0093, BRD field isolate); test: MIC, broth-microdilution (CLSI VET01-A4), strain PM 12080; details: Pasteurella multocida strain PM 12080, broth-microdilution; unit assumed
Summary of the method: as §1

## CC(C)([C@H](NC(=O)c1ccc(C#Cc2ccc(CNC3CC3)cc2)cc1)C(=O)NO)S(C)(=O)=O [C.255]
[1]
  MIC MH 6357: 0.8 µg/mL (≈ 1.65 µM)
[2]
  MIC MH 6374: 0.4 µg/mL (≈ 0.827 µM)
[3]
  MIC MH 10720: ≤ 0.1 µg/mL
[4]
  MIC MH 12587: 1.6 µg/mL (≈ 3.31 µM)
[5]
  MIC MH 13065: 0.4 µg/mL (≈ 0.827 µM)
[6]
  MIC MH 13093: 0.8 µg/mL (≈ 1.65 µM)
[7]
  MIC PM 6267: ≤ 0.1 µg/mL
[8]
  MIC PM 6391: ≤ 0.1 µg/mL
[9]
  MIC PM 10775: ≤ 0.1 µg/mL
[10]
  MIC PM 12080: ≤ 0.1 µg/mL

## CON=C(C)[C@H](NC(=O)c1ccc(C#Cc2ccc(CNCc3ccccc3)cc2)cc1)C(=O)NO [Compound 382]
[1]
  MIC MH 6357: 0.8 µg/mL (≈ 1.65 µM)
[2]
  MIC MH 6374: 1.6 µg/mL (≈ 3.3 µM)
[3]
  MIC MH 10720: 0.8 µg/mL (≈ 1.65 µM)
[4]
  MIC MH 12587: 0.2 µg/mL (≈ 0.413 µM)
[5]
  MIC MH 13065: 0.8 µg/mL (≈ 1.65 µM)
[6]
  MIC MH 13093: 0.8 µg/mL (≈ 1.65 µM)
[7]
  MIC PM 6267: 0.8 µg/mL (≈ 1.65 µM)
[8]
  MIC PM 6391: ≤ 0.1 µg/mL
[9]
  MIC PM 10775: 0.4 µg/mL (≈ 0.825 µM)
[10]
  MIC PM 12080: 0.4 µg/mL (≈ 0.825 µM)

## O=C(N[C@@H](CO)C(=O)NO)c1ccc(C#Cc2ccc(CN3CCCC3)cc2)cc1 [Compound 145]
[1]
  MIC MH 6357: 6.3 µg/mL (≈ 15.5 µM)
[2]
  MIC MH 6374: 25 µg/mL (≈ 61.4 µM)
[3]
  MIC MH 10720: 3.1 µg/mL (≈ 7.61 µM)
[4]
  MIC MH 12587: 25 µg/mL (≈ 61.4 µM)
[5]
  MIC MH 13065: 12.5 µg/mL (≈ 30.7 µM)
[6]
  MIC MH 13093: 12.5 µg/mL (≈ 30.7 µM)
[7]
  MIC PM 6267: 3.1 µg/mL (≈ 7.61 µM)
[8]
  MIC PM 6391: 6.3 µg/mL (≈ 15.5 µM)
[9]
  MIC PM 10775: 0.2 µg/mL (≈ 0.491 µM)
[10]
  MIC PM 12080: 6.3 µg/mL (≈ 15.5 µM)

## CC(C)([C@H](NC(=O)c1ccc(C#Cc2ccc(CNCc3cccs3)cc2)cc1)C(=O)NO)S(C)(=O)=O [Compound 271]
[1]
  MIC MH 6357: 0.4 µg/mL (≈ 0.741 µM)
[2]
  MIC MH 6374: 0.2 µg/mL (≈ 0.371 µM)
[3]
  MIC MH 10720: ≤ 0.1 µg/mL
[4]
  MIC MH 12587: 0.8 µg/mL (≈ 1.48 µM)
[5]
  MIC MH 13065: 0.2 µg/mL (≈ 0.371 µM)
[6]
  MIC MH 13093: 0.4 µg/mL (≈ 0.741 µM)
[7]
  MIC PM 6267: ≤ 0.1 µg/mL
[8]
  MIC PM 6391: ≤ 0.1 µg/mL
[9]
  MIC PM 10775: ≤ 0.1 µg/mL
[10]
  MIC PM 12080: ≤ 0.1 µg/mL

## CC[C@H](C)[C@H](NC(=O)c1ccc(C#Cc2ccc(CNC3CCCC3)cc2)cc1)C(=O)NO [Compound 196]
[1]
  MIC MH 6357: 6.3 µg/mL (≈ 14.1 µM)
[2]
  MIC MH 6374: 12.5 µg/mL (≈ 27.9 µM)
[3]
  MIC MH 10720: 1.6 µg/mL (≈ 3.57 µM)
[4]
  MIC MH 12587: 12.5 µg/mL (≈ 27.9 µM)
[5]
  MIC MH 13065: 6.3 µg/mL (≈ 14.1 µM)
[6]
  MIC MH 13093: 12.5 µg/mL (≈ 27.9 µM)
[7]
  MIC PM 6267: 0.2 µg/mL (≈ 0.447 µM)
[8]
  MIC PM 6391: 0.8 µg/mL (≈ 1.79 µM)
[9]
  MIC PM 10775: ≤ 0.1 µg/mL
[10]
  MIC PM 12080: 0.4 µg/mL (≈ 0.894 µM)

## CC(=O)C(NC(=O)c1ccc(C#Cc2ccc(CNCc3ccnc(Cl)c3)cc2)cc1)C(=O)NO (centres unmarked) [Compound 408]
[1]
  MIC MH 6357: 1.6 µg/mL (≈ 3.26 µM)
[2]
  MIC MH 6374: 1.6 µg/mL (≈ 3.26 µM)
[3]
  MIC MH 10720: 1.6 µg/mL (≈ 3.26 µM)
[4]
  MIC MH 12587: 0.4 µg/mL (≈ 0.815 µM)
[5]
  MIC MH 13065: 1.6 µg/mL (≈ 3.26 µM)
[6]
  MIC MH 13093: 1.6 µg/mL (≈ 3.26 µM)
[7]
  MIC PM 6267: 6.3 µg/mL (≈ 12.8 µM)
[8]
  MIC PM 6391: ≤ 0.1 µg/mL
[9]
  MIC PM 10775: 0.8 µg/mL (≈ 1.63 µM)
[10]
  MIC PM 12080: 0.4 µg/mL (≈ 0.815 µM)

## CSC(C)(C)[C@H](NC(=O)c1ccc(C#Cc2ccc(CNCc3cccs3)cc2)cc1)C(=O)NO [Compound 251]
[1]
  MIC MH 6357: 0.8 µg/mL (≈ 1.58 µM)
[2]
  MIC MH 6374: 0.8 µg/mL (≈ 1.58 µM)
[3]
  MIC MH 10720: ≤ 0.1 µg/mL
[4]
  MIC MH 12587: 1.6 µg/mL (≈ 3.15 µM)
[5]
  MIC MH 13065: 0.8 µg/mL (≈ 1.58 µM)
[6]
  MIC MH 13093: 0.8 µg/mL (≈ 1.58 µM)
[7]
  MIC PM 6267: ≤ 0.1 µg/mL
[8]
  MIC PM 6391: 0.2 µg/mL (≈ 0.394 µM)
[9]
  MIC PM 10775: ≤ 0.1 µg/mL
[10]
  MIC PM 12080: ≤ 0.1 µg/mL

## COCCCNCc1ccc(C#Cc2ccc(C(=O)NC(C(=O)NO)C(C)(C)[N+](=O)[O-])cc2)cc1 (centres unmarked) [Compound 285]
[1]
  MIC MH 6357: 1.6 µg/mL (≈ 3.32 µM)
[2]
  MIC MH 6374: 3.1 µg/mL (≈ 6.42 µM)
[3]
  MIC MH 10720: ≤ 0.1 µg/mL
[4]
  MIC MH 12587: 6.3 µg/mL (≈ 13.1 µM)
[5]
  MIC MH 13065: 1.6 µg/mL (≈ 3.32 µM)
[6]
  MIC MH 13093: 3.1 µg/mL (≈ 6.42 µM)
[7]
  MIC PM 6267: 3.1 µg/mL (≈ 6.42 µM)
[8]
  MIC PM 6391: 1.6 µg/mL (≈ 3.32 µM)
[9]
  MIC PM 10775: ≤ 0.1 µg/mL
[10]
  MIC PM 12080: 0.8 µg/mL (≈ 1.66 µM)

## O=C(N[C@@H](CO)C(=O)NO)c1ccc(C#Cc2ccc(CNC3CCC3)cc2)cc1 [Compound 147]
[1]
  MIC MH 6357: 3.1 µg/mL (≈ 7.61 µM)
[2]
  MIC MH 6374: 6.3 µg/mL (≈ 15.5 µM)
[3]
  MIC MH 10720: 3.1 µg/mL (≈ 7.61 µM)
[4]
  MIC MH 12587: 6.3 µg/mL (≈ 15.5 µM)
[5]
  MIC MH 13065: 6.3 µg/mL (≈ 15.5 µM)
[6]
  MIC MH 13093: 6.3 µg/mL (≈ 15.5 µM)
[7]
  MIC PM 6267: 0.4 µg/mL (≈ 0.982 µM)
[8]
  MIC PM 6391: 1.6 µg/mL (≈ 3.93 µM)
[9]
  MIC PM 10775: ≤ 0.1 µg/mL
[10]
  MIC PM 12080: 1.6 µg/mL (≈ 3.93 µM)

## C=CCNCc1ccc(C#Cc2ccc(C(=O)N[C@H](C(=O)NO)C(C)(C)SC)cc2)cn1 [Compound 336]
[1]
  MIC MH 6357: 0.8 µg/mL (≈ 1.77 µM)
[2]
  MIC MH 6374: 0.8 µg/mL (≈ 1.77 µM)
[3]
  MIC MH 10720: 0.2 µg/mL (≈ 0.442 µM)
[4]
  MIC MH 12587: 3.1 µg/mL (≈ 6.85 µM)
[5]
  MIC MH 13065: 1.6 µg/mL (≈ 3.54 µM)
[6]
  MIC MH 13093: 1.6 µg/mL (≈ 3.54 µM)
[7]
  MIC PM 6267: 0.8 µg/mL (≈ 1.77 µM)
[8]
  MIC PM 6391: 1.6 µg/mL (≈ 3.54 µM)
[9]
  MIC PM 10775: ≤ 0.1 µg/mL
[10]
  MIC PM 12080: 0.8 µg/mL (≈ 1.77 µM)

## CC(C)[C@H](NC(=O)c1ccc(C#Cc2ccc(CNCc3ncc[nH]3)cc2)cc1)C(=O)NO [Compound 173]
[1]
  MIC MH 6357: 3.1 µg/mL (≈ 6.96 µM)
[2]
  MIC MH 6374: 3.1 µg/mL (≈ 6.96 µM)
[3]
  MIC MH 10720: 0.8 µg/mL (≈ 1.8 µM)
[4]
  MIC MH 12587: 6.3 µg/mL (≈ 14.1 µM)
[5]
  MIC MH 13065: 6.3 µg/mL (≈ 14.1 µM)
[6]
  MIC MH 13093: 6.3 µg/mL (≈ 14.1 µM)
[7]
  MIC PM 6267: ≤ 0.1 µg/mL
[8]
  MIC PM 6391: 0.8 µg/mL (≈ 1.8 µM)
[9]
  MIC PM 10775: ≤ 0.1 µg/mL
[10]
  MIC PM 12080: 0.4 µg/mL (≈ 0.898 µM)
